Laboratory results reported in patent US6583114B2, “Fracture healing using pthrp analogs” (Roche Palo Alto LLC, priority 1997, dated 2003).

Columns and labels:
segmental femoral defect = experiment: Segmental femoral defect rat fracture model (Example 1); type: in vivo; conditions: for bone growth in the defects (weekly radiographic density of segmented bone defect) relative to control: FIG. 1, after four weeks of treatment; for bone growth in the defects (weekly radiographic density of segmented bone defect) relative to control / bone healing and fracture repair, treated versus control animals: subcutaneous daily; for radiographic density ratio of the segmented bone to the contralateral femur: FIG. 2, after six weeks of treatment, relative to control treated rats; for bone healing and fracture repair, treated versus control animals: radiography, sacrifice at 6 weeks
Procedure: T. A. Einhorn et al. “The Healing of Segmented Bone Defects Induced by Demineralized Bone Matrix. A Radiographic and Biomechanical Study,” J. Bone Joint, 66:274-279 (1984.
Adult male Sprague-Dawley rats weighing about 300 grams were maintained on Laboratory Rodent Diet 5001 (PMI Feeds, St. Louis, Mo.) and water ad libitum. All rats received only water for 12 hours prior to surgery. The animals were anesthetized prior to surgery by IP injection with ketamine (80 mg/kg) and xylazine (5 mg/kg). A single dose of procaine penicillin was given intramuscularly for prophylaxis against infection.
A lateral approach to the femur was used and a pre-drilled high density polyethylene plate was fixed along the anterior cortex of the femur. During this placement the periosteum of the femur was extensively stripped. A […] non-critical sized segmental defect was created in the mid portion of the femur shaft. The wound was closed with nylon and chromic sutures.
Postoperatively, the rats were placed in cages with 48 hour post-operative access to food pellets. The animals were monitored at least once daily and animals displaying any signs of illness were examined and given appropriate therapy if necessary.
Rats were divided into groups as shown in Table 1 and either a control vehicle (saline) or a PTHrP analog as described herein was administered subcutaneously daily starting on post-operative day 1. Radiographic analyses were performed weekly. Animals were sacrificed at 6 weeks and compared by radiography.
Sedated rats were placed in the prone position with hindlimbs externally rotated. Serial radiographs of each femur (involved femur and contralateral femur) were taken weekly starting with postoperative week 1. An aluminium phantom device with known density values was included in each radiograph for calibration. Each radiograph was placed on a translumination board and a picture taken using a DCS 420 digital Kodak camera. These images were then transferred to a Gateway 2000 IBM compatible computer and digitized using image analysis software (Sigma Scan©). An outline of the defect was traced and the average density of the area of the osteotomy measured in treated animals relative to control animals. […] The average density of the osteotomy was also compared to the average density of the contralateral femur for each weekly reading. […] After sacrifice (6 weeks), the femurs (experimental and contralateral) were dissected free of soft tissue. Fine grain radiographs were taken of the femurs in the lateral plane. The osteotomy was considered united when there was osseous continuity of the femur across more than 25% of the cross sectional diameter of the defect.

[1] = system: intramembraneous bone defect; experiment: Intramembraneous bone healing, drill hole defects in distal femur and proximal tibia (Example 3); type: in vivo, rabbit; conditions: for intramembraneous bone formation relative to vehicle treated animals: 2 or 10 μg/kg/day subcutaneous daily; for femoral defects healed / tibial defects healed: day 21
Source text: Rabbits were generally anesthesized and subjected to surgery to create four surface defects, one in each distal femur and one in each proximal tibia. A posterior lateral surgical incision measuring approximately 3 cm. was made to expose the distal lateral femoral condyle. Bone proximal to the knee joint was subperiosteally exposed and a 5 mm drill hole was made, keeping the drill bit cool by constant irrigation. The wound was irrigated with normal saline. Deep tissue was closed with a running 3-0 chronic suture followed by closure of the subticular layer with a running 3-0 nylon suture and three to four interrupted stainless steel sutures. A second 3 cm. incision was made over the medial proximal tibia and a 5 mm drill hole was made in the proximal medial tibia. The wound was closed as described previously. The entire procedure was repeated on the contralateral limb.
Stock solutions of PTHrP analog C, (MAP1-10)^22-31His^26hPTHrP(1-34)NH2, and PTHRP analog D, (MAP1-10)^22-31hPTHrP(1-34)NH2, at 800 μg/ml were prepared by sterile filtration through an 0.22 micron filter and diluted in vehicle to either 20 μg/ml or 100 μg/ml just before administration. Vehicle was 30 mg/ml mannitol, 30/mg/ml sucrose, 0.12 mg/ml Tween™ 80, 0.17 mg/ml acetic acid and 2.33 mg/ml sodium acetate trihydrate. PTHrP analogs at either 2 μg/kg/day or 10 μg/kg/day was administered daily by subcutaneous injection to the surgically treated animals.
Animals were X-rayed weekly for the duration of the study. Densitometric measurements were made using a transilluminating scanner and MetaMorph™ (Universal Imaging, West Chester, Pa.) software. Radiographs of the lower extremities were performed in internal and external rotation on post-operative day 10 and 21. The animals were sacrificed on post-operative day 30. At the end of the study, animals were euthanized by pentobarbital overdose, tissues were harvested from the left and right femurs and tibias were analyzed by x-ray and histological analysis.

ulnar osteotomy = experiment: Ulnar osteotomy model, corticosteroid induced delayed healing (Example 4); type: in vivo, rabbit
Procedure: Adult male New Zealand White rabbits were used in all experiments. In Part I, ten rabbits were divided into two equal groups and in Part II, twenty rabbits were divided equally. Non critical sized (1 mm) defects were created bilaterally in each rabbit. From two months prior to surgery through six weeks post-operative, all rabbits received daily subcutaneous injections of either prednisone (0.15 mg/kg) in sterile water (experimental group) or sterile saline (control group). Beginning on the first post-operative day, the experimental group were administered daily sub cutaneious infections of PTHrP analog D (0.01 mg/kg), while the control group received injections of normal saline. In Part I, animals were sacrificed at six weeks after creation of the osteotomy. In Part II, animals were sacrificed once radiographic union was reached bilaterally, or in cases of non-union at ten weeks post-operative. In both sets of experiments, radiological intensity and healing area were analyzed every other week starting two weeks (Part I) or four weeks (Part II) post-operatively. Serial radiographs of the forelimbs were taken and digitized and the bone area was quantified using image analysis software (Sigma Scan Pro). Photodensitometry was used to quantitate the mineral content of the newly formed bone at sites of osteotomy and callus formation. After sacrifice, high resolution faxitron radiographs were taken of both limbs in the anteroposterior and lateral planes, allowing for analysis of fracture callus dimension and size.

fracture healing = conditions: intermittent treatment; ovariectomized rats; Kim et al.; cited from earlier work
[2] = high dose group (10 μg/kg/day s.c.)
[3] = low dose group (2 μg/kg/day s.c.), no complete healing in controls

(MAP1-10)^22-31Ala^19hPTHrP(1-34)NH2 [PTHrP analog B]
bone growth in the defects (weekly radiographic density of segmented bone defect) relative to control (segmental femoral defect): greater than in the control animals | radiographic density ratio of the segmented bone to the contralateral femur (segmental femoral defect): increased bone density

(MAP1-10)^22-31His^26hPTHrP(1-34)NH2 [PTHrP analog C]
bone growth in the defects (weekly radiographic density of segmented bone defect) relative to control (segmental femoral defect): greater than in the control animals | radiographic density ratio of the segmented bone to the contralateral femur (segmental femoral defect): increased bone density | union of the defect in high resolution radiographs (segmental femoral defect; FIG. 3, after treatment for six weeks, control defect remains non-united): has healed | intramembraneous bone formation relative to vehicle treated animals [1]: accelerated intramembraneous bone formation

(MAP1-10)^22-31c[Lys^13, Asp^17]hPTHrP(1-34)NH2
bone healing and fracture repair, treated versus control animals (segmental femoral defect): accelerated bone healing and fracture repair

(MAP1-10)^22-31hPTHrP(1-34)NH2 [PTHrP analog D]
torsional strength (stiffness and maximum torque) versus vehicle-treated control limbs (ulnar osteotomy; Part I, biomechanical): significantly greater | intensities at the osteotomy sites, anteroposterior and lateral faxitrons, treated versus control limbs (ulnar osteotomy; Part I, six weeks): significantly greater | intensity of proximal and distal ulnar diaphyses, treated versus control limbs (ulnar osteotomy; Part I, six weeks): significantly greater | intensity of the external calluses (lateral), treated versus control limbs (ulnar osteotomy; Part I, six weeks): also greater | limbs that achieved union (ulnar osteotomy; Part I, six weeks, 0.01 mg/kg daily s.c., prednisone, two out of ten in vehicle controls, FIG. 5): Nine out ten | area of the osteotomy versus vehicle control limbs (ulnar osteotomy; Part II, after sacrifice): significantly smaller | radiographic intensity at the osteotomy site, ulnar diaphysis and callus area versus vehicle control limbs (ulnar osteotomy; Part II, after sacrifice, p<0.05 at osteotomy site): greater radiographic intensity | radiographic intensity at the osteotomy site, external calluses and ulnar diaphyses versus control limbs (ulnar osteotomy; Part II, four weeks, p<0.01 at osteotomy site): greater radiographic intensity | combined callus areas versus control limbs (ulnar osteotomy; Part II, four weeks, p<0.05): greater | callus intensity or area versus control limbs (ulnar osteotomy; Part II, six weeks): no differences | intensity at the osteotomy site versus control limbs, in vivo radiography (ulnar osteotomy; Part II, six weeks): trend of increased intensity | union rate (ulnar osteotomy; Part II, six weeks, radiographic union): complete union rate | intramembraneous bone formation relative to vehicle treated animals [1]: accelerated intramembraneous bone formation | tibial defects filled with mineralized tissue ([1]; at sacrifice (day 30), high dose, radiographic analysis, p<0.01 vs control (less than 10%)): over 85% | percent fill of femoral defects versus control treated femoral defects ([1]; at sacrifice, p<0.01): significant greater percent fill | femoral defects healed [1, 2]: 50% | tibial defects healed [1, 2]: 75% | femoral defects healed [1, 3]: 40% | tibial defects healed [1, 3]: 40%

(MAP1-10)^22-31hSer^34PTHrP(1-34)THIQ NH2
bone healing and fracture repair, treated versus control animals (segmental femoral defect): accelerated bone healing and fracture repair

B1: parathyroid hormone (protein, UniProt P01270 32-115, looked up)
Parathyroid hormone: SVSEIQLMHNLGKHLNSMERVEWLRKKLQDVHNFVALGAPLAPRDAGSQRPRKKEDNVLVESHEKSLGEADKADVNVLTKAKSQ
modifications: Parathyroid hormone recombinant
notes: Recombinant human (1-84) parathyroid hormone, per the cited Kim et al. titles
fracture healing (fracture healing): improves fracture healing
